Data on four compounds can be found in patent US20180207164A1, “COMBINATION THERAPIES FOR TREATING CANCERS” (GILEAD SCIENCES, INC., priority 2015, published 2018).

Some results are limits rather than exact numbers.

For assay [1], the system named is primary chronic lymphocytic leukemia (CLL) cells. Put plainly: Apoptosis induction in primary CLL cells with αIgM/αIgG/αCD40 stimulation, without HS-5 co-culture (Annexin V/Live-Dead flow cytometry). The assay is classed as cell-based, human. Conditions: for Maximal % Apoptosis: HS-5 (no co-culture), 66-72 hr post-compound addition, duplicate wells; for apoptosis observed in all CLL samples tested: at 30 nM; for average maximal proportion of apoptotic cells: primary αIgM/αIgG/αCD40 stimulated CLL cells. The procedure:
(§1) The HS-5 human stromal cell line was obtained from ATCC (American Tissue Type Collection). Cells were maintained in lymphocyte growth medium (LGM): RPMI-1640 supplemented with 10% FBS, 1% penicillin-streptomycin, 10 mM HEPES, 1 mM sodium pyruvate, 55 μM β-mercaptoethanol, and 2 mM GlutaMax. With informed consent, whole blood was obtained from CLL subjects.
(§2) Peripheral blood mononuclear cells (PBMCs) were prepared from human whole blood obtained from CLL patients by Ficoll-separation in CPT tubes according to manufacturer's directions (Becton Dickinson). Isolated PBMCs were cryopreserved in freezing medium (50% IMDM, 40% FBS, and 10% DMSO) and held in the gas phase of liquid nitrogen until use. One day prior to plating of primary CLL cells, wells of a U-bottom 96-well plate were coated with 3.0×10^4 HS-5 cells and allowed to adhere overnight in a humidified 37° C. incubator supplemented with 5% CO2. The % CD5+/CD19^+ cells isolated were quantified via FACS staining.
(§3) Frozen primary CLL PBMCs were thawed, washed once in LGM, and rested for 3-5 hours in LGM at 37° C. prior to plating. Cells were then centrifuged at room temperature for 10 minutes and resuspended at 1.0-2.5×10^5 cells/mL in LGM for plating. Assay wells were set up in U-bottom 96-well tissue culture plates in the absence or presence of HS-5 co-culture. Compounds were diluted as described below. Assay plates were incubated for 1 hour prior to stimulation with αIgM/αIgG (7.8 μg/well) and αCD40 (4 μg/well). Positive and negative controls were set up. Cells were incubated for 66-72 hours in a 37° C. CO2 incubator and assayed for apoptosis.
(§4) Compounds were diluted from 10 mM DMSO stock solutions. Compound combinations were prepared by transferring 2 μl each of the appropriate working compound solutions or vehicle to wells of a 96-well polypropylene plate. A daughter plate was made by 100× dilution into media. The final assay plate was made by 10× dilution into the final assay plate described above. The final DMSO concentration was 0.1%.
(§5) Cells were transferred to a deep well (2 mL) assay block and rinsed with 1 mL cation free PBS (PBS^−/−). Cells were resuspended in Invitrogen's aqua Live/Dead reagent according to manufacturer's instructions and incubated 30 minutes on ice. Aqua Live/Dead was quenched with an equal volume of PBS^+/+ and 4% FBS (FACS buffer). Cells were centrifuged and labeled with αCD5-PE, αCD19-BV421 and AnnexinV-APC in a total volume of 80 μL and incubated 30 minutes on ice. After labeling, cells were rinsed twice in FACS buffer and then fixed with BD Fixation buffer for 30 minutes on ice. Cells were rinsed twice with FACS buffer and analyzed.
(§6) The percentage of CD5^+/CD19^+ cells was quantified in the PBMCs to provide an assessment of the malignant cell population in each sample. To evaluate apoptosis, flow cytometric sampling of 50 μL cell suspensions (5,000-25,000 total events) were collected on a BD FACS Canto II instrument using a high throughput screen (HTS) autosampler. The CD5^+CD19^+ population was gated, and data were collected for the Annexin V^−/Live-Dead^−, AnnexinV^+/Live-Dead^−, AnnexinV^+/Live-Dead^+, and Annexin V^−/Live-Dead^+ CLL populations.
(§7) Annexin V^+/Live-Dead^− or Annexin V^−/Live-Dead^+ cells were gated and percentages of positive cells in each population were recorded for each well and data were extracted to a flow cytometry standard (fcs) file. Average percentages of Annexin V^+/Live-Dead^− and Annexin V^−/Live-Dead^+ were determined.
EC50 values were calculated based on log concentration of drug and percent Annexin V^+/Live-Dead^− and Annexin V^−/Live-Dead^+ cells using a 4 parameter nonlinear regression algorithm in Prism 6.01 of the GraphPad software (San Diego, Calif. USA, www.graphpad.com). Each run generated a single EC50 based on duplicate well values at each compound dilution. EC50 values and Hill slopes generated from each curve fit were reported. […]

Assay [2] has as its system primary CLL cells + HS-5 co-culture. The assay can be described thus: Apoptosis induction in primary CLL cells with αIgM/αIgG/αCD40 stimulation in HS-5 stromal cell co-culture. It counts as cell-based, human. The following applies: for Maximal % Apoptosis: +HS-5, 1 μM compound, 66-72 hr post-compound addition, duplicate wells. Here is the method: as §1, §2
One day prior to plating of primary CLL cells, wells of a U-bottom 96-well plate were coated with 3.0×10^4 HS-5 cells and allowed to adhere overnight in a humidified 37° C. incubator supplemented with 5% CO2.
as §3, §4, §5, §6, §7
EC50 values were calculated based on log concentration of drug and percent Annexin V^+/Live-Dead^− and Annexin V^−/Live-Dead^+ cells using a 4 parameter nonlinear regression algorithm in Prism 6.01 of the GraphPad software (San Diego, Calif. USA, www.graphpad.com). […]

Assay [3] has as its system CLL. The following applies: human, in vivo; cited from earlier work.

Regarding `CC#CC(=O)N1CC[C@@H](n2c(=O)n(-c3ccc(Oc4ccccc4)cc3)c3c(N)ncnc32)C1` [Compound A1, 6-amino-9-[(3R)-1-(2-butynoyl)-3-pyrrolidinyl]-7-(4-phenoxyphenyl)-7,9-dihydro-8H-purin-8-one], in assay [1] (1 μM compound, αIgM/αIgG/αCD40 stimulated, 5 donors), the average maximal apoptosis came to 21.1%. The “Maximal % Apoptosis” value in assay [1] (Donor 3, 1 μM compound) was found to be 30.0%; in assay [1] (Donor 4, 1 μM compound), 67.3%; in assay [1] (Donor 5, 1 μM compound), 10.4%; in assay [1] (Donor 6, 1 μM compound), 14.1%; in assay [1] (Donor 10, 1 μM compound) it was 20.0%; in assay [2] (Donor 3) it was 10.1%. In assay [2] (Donor 4), the “Maximal % Apoptosis” value is 45.5%. For the same compound, the EC50 in assay [1] (Homo sapiens, CLL cell, primary CLL cells stimulated with αIgM/αIgG/αCD40, N=4, 66-72 h, read-out: geometric mean EC50 (±standard deviation) for induction of apoptosis) stood at 27.2 ± 11.3 nM. Also, in assay [2] (HS-5 co-culture, 5 donors tested, mean EC50 not reported), the “apoptosis levels versus background in the presence of HS-5 co-culture” value is recorded as “generally not increased above background in 3/5 donors tested”.

Turning to `CC1(C)CCC(CN2CCN(c3ccc(C(=O)NS(=O)(=O)c4ccc(NCC5CCOCC5)c([N+](=O)[O-])c4)c(Oc4cnc5[nH]ccc5c4)c3)CC2)=C(c2ccc(Cl)cc2)C1` [Compound B1, 4-[4-[[2-(4-chlorophenyl)-4,4-dimethyl-1-cyclohexen-1-yl]methyl]-1-piperazinyl]-N-[[3-nitro-4-[[(tetrahydro-2H-pyran-4-yl)methyl]amino]phenyl]sulfonyl]-2-(1H-pyrrolo[2,3-b]pyridin-5-yloxy)-benzamide], the “Maximal % Apoptosis” value in assay [1] (Donor 3, 1 μM compound) was determined as 66.1%; in assay [1] (Donor 4, 1 μM compound), 87.3%; in assay [1] (Donor 5, 1 μM compound), 38.3%; in assay [1] (Donor 6, 1 μM compound) it was 31.6%; in assay [1] (Donor 10, 1 μM compound), 35.8%; in assay [2] (Donor 3) it was 30.8%. In addition, the “Maximal % Apoptosis” value in assay [2] (Donor 4) is recorded as 80.8%. The “apoptosis observed in all CLL samples tested” value in assay [1] was over 60%. For the same compound, the “average maximal proportion of apoptotic cells” value in assay [1] is on record as 91.4%. Besides, in assay [3], the “clinical efficacy in CLL” value was “clinical efficacy in CLL”.

`CCC(Nc1ncnc2[nH]cnc12)c1nc2cccc(F)c2c(=O)n1-c1ccccc1` (stereo not shown) [Compound C1, 2-(1-((9H-Purin-6-yl)amino)propyl)-5-fluoro-3-phenylquinazolin-4(3H)-one]: the “Maximal % Apoptosis” value came out at 50.8% in assay [1] (Donor 3, 1 μM compound); 60.1% in assay [1] (Donor 4, 1 μM compound); 12.1% in assay [1] (Donor 5, 1 μM compound); 15.0% in assay [1] (Donor 6, 1 μM compound); 17.6% in assay [1] (Donor 10, 1 μM compound); 15.2% in assay [2] (Donor 3). Further, the “Maximal % Apoptosis” value in assay [2] (Donor 4) worked out at 30.6%. Moreover, the “dose-responsive effect in inducing apoptosis” value in assay [1] (primary CLL cells, single agent) is “dose-responsive effect”. The “average maximal proportion of apoptotic cells” value in assay [1] turned out to be 23%.

As to `c1cn2cc(-c3ccc4cn[nH]c4c3)nc(Nc3ccc(N4CCOCC4)cc3)c2n1` [Compound D1, 6-(1H-indazol-6-yl)-N-(4-morpholinophenyl)imidazo[1,2-a]pyrazin-8-amine], the “apoptosis observed in all CLL samples tested” value in assay [1] was over 60%. Further, the “clinical efficacy in CLL” value in assay [3] is on record as “clinical efficacy in CLL”.
